Data taken from ChEMBL document CHEMBL3817750, “New hydrazones of 5-nitro-2-furaldehyde with adamantanealkanohydrazides: synthesis and in vitro trypanocidal activity” (Medchemcomm, 2016).

How the values were obtained:
[1] = Selectivity index, ratio of IC50 for rat L6 cells to IC50 for epimastigote form of Trypanosoma cruzi CL Brener; format: toxicity, cell-based; settings: read-out: Ratio IC50
[2] = system: L6; test: Cytotoxicity against rat L6 cells after 6 days by Alamar blue assay; format: cell-based
[3] = system: Trypanosoma cruzi; test: Trypanocidal activity against epimastigote form of Trypanosoma cruzi CL Brener assessed as reduction in parasitic growth after 4 days by Alamar blue assay; format: functional; settings: 96 h
[4] = system: Trypanosoma brucei; test: Trypanocidal activity against bloodstream form of Trypanosoma brucei 427 assessed as reduction in parasitic growth after 48 hrs by Alamar blue assay; format: functional, organism-based; settings: Trypanosoma brucei, 427, 48 h
[5] = Selectivity index, ratio of IC50 for rat L6 cells to IC50 for bloodstream form of Trypanosoma brucei 427; format: toxicity, cell-based; settings: read-out: Ratio IC50
[6] = Rattus norvegicus, L6, 144 h, read-out: IC50

| Compound | selectivity ratio [1] | IC50 [2, 6] | IC50 [3] | IC90 [3] | IC50 [4] | IC90 [4] | selectivity ratio [5] | IC50 ([2]; l6) |
| --- | --- | --- | --- | --- | --- | --- | --- | --- |
| CCOC(=O)CC12CC3CC(CC(CC(=O)N/N=C/c4ccc([N+](=O)[O-])o4)(C3)C1)C2 | 32 | 7490 nM | 204 nM | 478 nM | 223 nM | 643 nM | 34 |  |
| O=C(N/N=C/c1ccco1)C12CC3CC(CC(C3)C1)C2 |  | > 35000 nM | > 35000 nM | > 35000 nM | > 35000 nM | > 35000 nM |  |  |
| O=C(N/N=C/c1ccc([N+](=O)[O-])o1)C12CC3CC(C1)CC(C(=O)N/N=C/c1ccc([N+](=O)[O-])o1)(C3)C2 |  |  | > 2000 nM | > 2000 nM | 75 nM | 98 nM |  | ND(Insoluble) |
| O=C(CCC12CC3CC(CC(C3)C1)C2)N/N=C/c1ccco1 |  | > 30000 nM | 6090 nM | 15700 nM | > 30000 nM | > 30000 nM |  |  |
| O=C(CC1C2CC3CC(C2)CC1C3)N/N=C/c1ccc([N+](=O)[O-])o1 (stereo unspecified) | 16 | 3260 nM | 202 nM | 381 nM | 126 nM | 207 nM | 26 |  |
| O=C(CCC12CC3CC(C1)CC(c1ccccc1)(C3)C2)N/N=C/c1ccc([N+](=O)[O-])o1 | 17 | 4590 nM | 238 nM | 654 nM | 90 nM | 167 nM | 51 |  |
| O=C(CC12CC3CC(CC(C3)C1)C2)N/N=C/c1ccco1 |  | > 35000 nM | > 35000 nM | > 35000 nM | > 35000 nM | > 35000 nM |  |  |
| O=C(N/N=C/c1ccc([N+](=O)[O-])o1)C12CC3CC(C1)CC(C1CCCC1)(C3)C2 | 49 | 11000 nM | 225 nM | 528 nM | 216 nM | 425 nM | 51 |  |
| O=C(N/N=C/c1ccc([N+](=O)[O-])o1)C12CC3CC(C1)CC(c1ccccc1)(C3)C2 | 31 | 11400 nM | 368 nM | 676 nM | 244 nM | 406 nM | 47 |  |
| O=C(N/N=C/c1ccc([N+](=O)[O-])o1)C1C2CC3CC(C2)CC1C3 (stereo unspecified) | 23 | 19200 nM | 844 nM | 1960 nM | 231 nM | 599 nM | 83 |  |
| O=C(CCC12CC3CC(CC(C3)C1)C2)N/N=C/c1ccc([N+](=O)[O-])o1 | 56 | 16000 nM | 348 nM | 719 nM | 386 nM | 560 nM | 41 |  |
| O=C(N/N=C/c1ccc([N+](=O)[O-])o1)C12CC3CC(CC(C3)C1)C2 | 14 | 7720 nM | 561 nM | 992 nM | 851 nM | 1040 nM | 9 |  |
| O=C(CC12CC3CC(CC(C3)C1)C2)N/N=C/c1ccc([N+](=O)[O-])o1 | 15 | 3170 nM | 205 nM | 568 nM | 242 nM | 553 nM | 13 |  |
| O=C(CCC1C2CC3CC(C2)CC1C3)N/N=C/c1ccc([N+](=O)[O-])o1 (stereo unspecified) | 12 | 2380 nM | 206 nM | 513 nM | 122 nM | 177 nM | 20 |  |
| O=C(CC12CC3CC(C1)CC(C1CCCC1)(C3)C2)N/N=C/c1ccc([N+](=O)[O-])o1 | 49 | 8790 nM | 178 nM | 329 nM | 306 nM | 459 nM | 29 |  |
| O=C(CCC12CC3CC(C1)CC(C1CCCC1)(C3)C2)N/N=C/c1ccc([N+](=O)[O-])o1 | 33 | 4600 nM | 140 nM | 803 nM | 158 nM | 322 nM | 29 |  |
| O=C(CC12CC3CC(C1)CC(c1ccccc1)(C3)C2)N/N=C/c1ccc([N+](=O)[O-])o1 | 55 | 5020 nM | 91 nM | 180 nM | 221 nM | 573 nM | 23 |  |
